The test system of one series is Vero E6 cells. In words: In vitro cytostatic effect, Alamar Blue viability assay, Vero E6. It counts as cell-based, African green monkey. As to conditions: then 72 h culture. Here is the method: (§1) The cytostatic effects of the compounds were evaluated in vitro on various cancer cells and noncancerous Vero E6 cells using the Alamar Blue viability assay, as detailed in the Supporting Information.
(§2) The cytostatic effects of MDiCQAs and FMGls were evaluated in vitro using the Alamar Blue viability assay on five human cancer cell lines: colorectal carcinoma (HT-29), glioma (U87), hepatocellular carcinoma (HepG2), promyelocytic leukemia (HL-60), and melanoma (A2058). They were also tested on nontumorous Vero E6 cells, kidney epithelial cells from an African green monkey, to evaluate the selectivity of the compounds. […] The two effective MDiCQAs (4 and 9) share a common structural feature: their central quinic acid core is substituted with caffeoyl moieties at the C-1 and C-5 positions and a malonyl group at the C-3 position. In contrast, the ineffective compound 7 has caffeoyl moieties at the same positions, but its malonyl group is attached to the C-4 position instead of C-3. Similarly, in the other ineffective MDiCQAs (5 and 6), the malonyl unit is also located at the C-4 position, while their caffeoyl groups are positioned at C-3 and C-5. […] The results also indicate a high degree of isomer-specificity in the cytostatic activity of MDiCQAs. […] In particular, the inhibition of Vero E6 cells by the MDiCQAs (4 and 9) can be considered as a strong effect, and that of the FMGl (3) as a weaker one, with IC50 values below 10 μM and around 40 μM, respectively. […]
(§3) Determination of the In Vitro Cytostatic Effects of Compounds. In vitro, the cytostatic effect of the compounds was determined on various human tumor- and non-human primate Vero E6 cells using Alamar Blue end-point viability assay. Cells were cultured in DMEM medium supplemented with 10% FBS, 2 mM L-glutamine, 50 IU/mL penicillin/50 µg/mL streptomycin antibiotic cocktail, 1 mM sodium pyruvate and 1% non-essential amino acid mixture at 37 °C in a humidified atmosphere with 5% CO2. At the confluent state, cells were plated into 96-well tissue culture plates with the initial cell number of 5.0×10^3 cells/well. Cells were treated with the compounds after 24 hours in a serum-free medium containing 1.0% (v/v) DMSO at 0.08 -100 µM concentration. Control cells were treated with serum-free medium or DMSO (c=1.0%, v/v ) containing serum-free medium. After overnight incubation, cells were washed twice with a serum-free medium; then, they were cultured for another 72 hours in the complete culturing medium at 37 °C. Following that, 22.5 µL Alamar Blue (resazurin sodium salt, Merck) solution (0.15 mg/mL in PBS) was added to each well and after 4 hrs of incubation, the fluorescence was measured at λEx = 530/30 and λEM = 610/10 nm using a Synergy H4 multi-mode microplate reader (BioTek). All measurements were performed in quadruplets, and the mean IC50 values and ± SEM were represented.
In general terms: The colour change of resazurin is a common sign of viable cells or microbes.

Another series has as its system glioma (U87). In words: In vitro cytostatic effect, Alamar Blue viability assay, U87. Type of series: cell-based, human. To be noted: U87 cells, overnight treatment 0.08-100 µM, then 72 h culture. Here is the method: as §1, §2, §3
In series [1] the test system is hepatocellular carcinoma (HepG2). Nature of the series: In vitro cytostatic effect, Alamar Blue viability assay, HepG2. Type of series: cell-based, human. As to conditions: HepG2 cells, overnight treatment 0.08-100 µM, then 72 h culture. The method, then:
as §1, §2, §3

Another series relates to melanoma (A2058). Nature of the series: In vitro cytostatic effect, Alamar Blue viability assay, A2058. Type of series: cell-based, human. To be noted: A2058 cells, overnight treatment 0.08-100 µM, then 72 h culture. Here is the method: as §1, §2, §3
The test system of series [2] is colorectal carcinoma (HT-29). Nature of the series: In vitro cytostatic effect, Alamar Blue viability assay, HT-29. Type of series: cell-based, human. To be noted: HT-29 cells, overnight treatment 0.08-100 µM, then 72 h culture. Here is the method: as §1, §2, §3
Series [3] deals with promyelocytic leukemia (HL-60). Nature of the series: In vitro cytostatic effect, Alamar Blue viability assay, HL-60. It counts as cell-based, human. As to conditions: HL-60 cells, overnight treatment 0.08-100 µM, then 72 h culture. The method, then: as §1, §2
as §3, with “All measurements were performed in quadruplets, and the mean IC50 values and ± SEM were represented.” left out

The subject of series [4] is human leukemia cells (MOLM-13). Also noted: method as in earlier work. To be noted: MOLM-13 cells; previously reported; ref 40 (Slimestad et al., 2022); cited from earlier work.
Series [5] concerns noncancerous rat kidney epithelial cells (NRK). Details: method as in earlier work. As to conditions: previously reported, ref 40 (Slimestad et al., 2022); cited from earlier work.
A short description of series [6]: DPPH radical scavenging assay. Type of series: biochemical. To be noted: 6 min incubation at room temperature, absorbance at 515 nm, triplicate. The method, then: A DPPH radical scavenging assay was conducted following a previously published protocol, as detailed in the Supporting Information.
Antioxidant Activity Tests. A DPPH radical scavenging assay was used according to a previously
published protocol.13 Serial dilutions of compounds (prepared in methanol) were incubated with
DPPH solution for 6 min at room temperature. The reduction in absorbance was measured with a
HITACHI U-2000 spectrophotometer (Hitachi Ltd., Tokyo, Japan) at 515 nm. […]
In general terms: DPPH is a stable violet radical that fades when it is reduced.

[7] abbreviates: Chlorocebus sabaeus, Vero C1008, 72 h, overnight treatment 0.08-100 µM.
Setting [8] is: overnight treatment 0.08-100 µM.

For `O=C(O)CC(=O)OC1CC(OC(=O)C=Cc2ccc(O)c(O)c2)(C(=O)O)CC(OC(=O)C=Cc2ccc(O)c(O)c2)C1O` (stereo not drawn) [Compound 4, 1,5-Dicaffeoyl-3-malonylquinic Acid], the IC50 (commonly the point on the concentration scale where inhibition reaches its midpoint) in the series on Vero E6 cells (setting [7]) is less than 10 µM; in the series on Vero E6 cells (setting [8]), 9.9 ± 1.4 µM; in the series with glioma (U87) (Homo sapiens, U-87 MG), more than 100 µM; in series [1] (Homo sapiens) it was 25.6 ± 2.3 µM; with melanoma (A2058) (Homo sapiens), 13.5 ± 1.5 µM; in [2] (Homo sapiens), more than 100 µM. Besides, in series [3] (Homo sapiens), the IC50 was 29.7 ± 4.6 µM.
In the case of `COc1cccc2c1C(=O)c1c(O)c3c(c(O)c1C2=O)C[C@@](O)(C(C)=O)C[C@@H]3O[C@H]1C[C@H](N)[C@H](O)[C@H](C)O1` [Daunomycin, reference compound], the IC50 with Vero E6 cells (Chlorocebus sabaeus, Vero C1008, overnight treatment 0.08-100 µM) came out at 1.7 ± 0.5 µM; with glioma (U87) (Homo sapiens, U-87 MG), 0.6 ± 0.05 µM; in series [1] (Homo sapiens), 0.54 ± 0.15 µM; with melanoma (A2058) (Homo sapiens) it was 0.2 ± 0.01 µM; in series [2] (Homo sapiens), 0.9 ± 0.1 µM; in [3] (Homo sapiens), 0.16 ± 0.03 µM.
1,3-dicaffeoyl-5-malonyl-δ-quinide: the in vitro cytotoxicity entry in series [4] and in [5] was “nonselective in vitro cytotoxicity” in each case.
For `O=C(O)CC(=O)OC1CC(OC(=O)C=Cc2ccc(O)c(O)c2)(C(=O)O)CC(OC(=O)C=Cc2ccc(O)c(O)c2)C1OC(=O)CC(=O)O` (stereo not drawn) [Compound 9, 1,5-Dicaffeoyl-3,4-dimalonylquinic Acid], the half-maximal inhibitory concentration (IC50) in the series with Vero E6 cells (setting [7]) is less than 10 µM; in the series on Vero E6 cells (setting [8]), 9.5 ± 3.1 µM; in series [6], 13.6 ± 0.4 µM; with glioma (U87) (Homo sapiens, U-87 MG), 48.5 ± 4.6 µM; in [1] (Homo sapiens), more than 100 µM; in the series on melanoma (A2058) (Homo sapiens), 11.9 ± 2.2 µM. In addition, the IC50 in [2] (Homo sapiens) is 47.9 ± 2.3 µM; in series [3] (Homo sapiens) it was more than 100 µM.
In series [6], `Cc1c(C)c2c(c(C)c1O)CCC(C)(C(=O)O)O2` (stereo not drawn) [Trolox, reference compound] had an IC50 of 18.4 ± 0.1 µM.
Same read-out and setting: then `O=C(O)CC(=O)OC[C@H]1O[C@@H](Oc2cc(O)c3c(=O)cc(-c4ccc(O)c(O)c4)oc3c2)[C@H](O)[C@@H](O)[C@@H]1O` [Compound 2, luteolin-7-O-(6″-O-malonyl)-β-D-glucoside], with 7.8 ± 0.4 µM.
As for `O=C(O)CC(=O)OC[C@H]1O[C@@H](Oc2c(-c3ccc(O)cc3)oc3cc(O)cc(O)c3c2=O)[C@H](O)[C@@H](O)[C@@H]1O` [Compound 3, kaempferol-3-O-(6″-O-malonyl)-β-D-glucoside], the IC50 with Vero E6 cells (setting [8]) is 39.8 ± 2 µM; in series [6], 233.9 ± 0.9 µM; with glioma (U87) it was 86.3 ± 9.4 µM; in series [1], 27.5 ± 3.4 µM; in the series with melanoma (A2058), 21 ± 3 µM; in [2], more than 100 µM. Moreover, the IC50 in series [3] was 51.4 ± 6.7 µM.
On to `O=C(O)CC(=O)OC[C@H]1O[C@@H](Oc2cc(O)c3c(=O)cc(-c4ccc(O)c(O)c4)oc3c2)[C@H](OC(=O)CC(=O)O)[C@@H](O)[C@@H]1O` [Compound 8, Luteolin-7-O-(2″,6″-di-O-malonyl)-β-D-glucoside], for which the 50% inhibitory concentration (IC50) in the series on Vero E6 cells (setting [7]) was more than 100 µM; in [6], 14.8 ± 0.6 µM; in the series with glioma (U87) (Homo sapiens, U-87 MG), more than 100 µM; in series [1] (Homo sapiens) it was more than 100 µM; with melanoma (A2058) (Homo sapiens), more than 100 µM; in series [2] (Homo sapiens), more than 100 µM.
The molecule `O=C(O)CC(=O)OC[C@H]1O[C@@H](Oc2c(-c3ccc(O)c(O)c3)oc3cc(O)cc(O)c3c2=O)[C@H](O)[C@@H](O)[C@@H]1O` [Compound 1, quercetin-3-O-(6″-O-malonyl)-β-D-glucoside] showed an IC50 in [6] of 22.5 ± 0.6 µM.

(Values after paper PMC12489727, “Malonyl-Caffeoylquinic Acids and Malonyl-Flavonoid-Glucosides from Three Edible Apiaceae Plants Anthriscus Cerefolium, Anthriscus Sylvestris, and Chaerophyllum Bulbosum” (ACS Omega, 2025).)
